According to patent publication EP4748903A1, “ULTRAVIOLET ABSORBER, ANTIOXIDANT, ANTI-GLYCATION AGENT, EXTERNAL PREPARATION FOR SKIN, COSMETIC, METHOD FOR PRODUCING COMPOUND, AND COMPOUND” (Meijo University, priority 2023, dated 2025):
Read-outs that look alike come from different tables or passages of the source.

Tests used:
[1] = Measurement of ABTS radical scavenging activity; type: biochemical; conditions: for IC50: ABTS method, room temperature, dark; for β/α value: IC50 after 40 minutes (β) divided by IC50 after 20 minutes (α), ABTS radical scavenging
Method: To evaluate the antioxidant activity of saclipin A and saclipin B, 2,2-azino-bis(3-ethylbenzothiazoline-6-sulfonic acid) diammonium salt (ABTS) radical scavenging activity was measured.
The ABTS radical solution was diluted with ethanol such that the absorbance at 734 nm was about 1.0. 50 µL of this diluted ABTS radical solution and 50 µL of the test sample ethanol solution were mixed, and the mixed reactant was held at room temperature for 20 or 40 minutes in the dark, then the absorbance was measured at 734 nm. […] Ascorbic acid and Trolox were used as standard samples. Inhibition rates were calculated using the following equation. Inhibition activity (%) = ((Ab−As)/Ab) × 100 [formula]
Here, Ab and As represent the absorbances of the blank sample and the test sample, respectively.

[2] = Time course experiment of ABTS radical scavenging (temporal change in antioxidant activity); type: biochemical; conditions: recorded for 2900 seconds at 25°C, 734 nm; saclipin A 0.60 mM, saclipin B 0.18 mM, ascorbic acid 6 µM, Trolox 6 µM
Method: A 7 mM ABTS aqueous solution and a 2.45 mM potassium persulfate aqueous solution were mixed at 25°C for 16 hours in the dark to prepare an ABTS radical solution. The ABTS radical solution was diluted with ethanol such that the absorbance at 734 nm was about 1.0. 50 µL of this diluted ABTS radical solution and 50 µL of the test sample ethanol solution were mixed, and the mixed reactant was held at room temperature for 20 or 40 minutes in the dark, then the absorbance was measured at 734 nm. The final reaction concentration of the sample was adjusted to 0 mM, 0.06 mM, 0.12 mM, 0.18 mM, 0.24 mM, 0.30 mM, 0.60 mM, 1.20 mM, and 1.80 mM. Ascorbic acid and Trolox were used as standard samples. Inhibition rates were calculated using the following equation. Inhibition activity (%) = ((Ab−As)/Ab) × 100 [formula]
Therefore, the temporal change of radical scavenging was measured by a time course experiment. In the time course experiment, the decrease in absorbance after addition of the test sample was recorded continuously for 2900 seconds at 25°C and 734 nm. In the time course experiment, the final reaction concentrations of saclipin A, saclipin B, ascorbic acid, and Trolox were adjusted to 0.60 mM, 0.18 mM, 6 µM, and 6 µM, respectively.

PSVK1 cells = test: MTT test on human keratinocytes (biocompatibility test); type: cell-based; conditions: compared with 1% ethanol control; for appearance of cells (microphotographs): 10.0 µM; for cytotoxicity (cell viability, MTT): 0.1 to 10.0 µM
Method: (§1) In order to examine the cytotoxicity of saclipin A and saclipin B, MTT tests were performed on (1) neonatal human dermal fibroblasts and (2) human keratinocytes.
(§2) The neonatal human dermal fibroblasts (NHDF) were purchased from ATCC. The neonatal human dermal fibroblasts were seeded in 96-well plates at 1×10^4 cells/well. Neonatal human dermal fibroblasts were cultured overnight at 37°C, 5% CO2 using Dulbecco's modified eagle medium (DMEM) in which 10% fetal bovine serum, […], and 10 mM HEPES were added to DMEM. 0.1 µM, 0.36 µM, 1.0 µM, 3.6 µM, and 10.0 µM of saclipin A or saclipin B were added to each cell. As a control, 1% ethanol was added to the cells. Next, 0.5 mg/mL MTT(3-(4,5-dimethylthiazole-2-yl)-2,5-diphenyltetrazolium bromide) was added, and the mixture was cultured for 20 hours at 37°C, 5% CO2. The whole formazan crystals were dissolved in dimethyl sulfoxide (DMSO), and then the absorbance of each sample solution was measured at 540 nm to determine the cell viability.
PSVK1 cells (JCRB1093, JCRB Cell Bank, National Institute of Biomedical Innovation, Health and Nutrition, Japan) were used as human keratinocytes. In this test, the test was carried out in the same manner as in "(1) MTT test on neonatal human dermal fibroblasts" described above except that the cells were cultured using a keratinocyte medium (Thermo Fisher Scientific) supplemented with 0.05 mg/mL bovine pituitary extract, 0.005 µg/mL epidermal growth factor, 100 units/mL penicillin, and 100 µg/mL streptomycin (Gibco).
(§3) The upper part of Fig. 13 is a graph showing the results of cell viability (cell viability, %). The labels on the horizontal axis represent each sample corresponding to each bar graph. For example, the labels "saclipin A" "10.00" represent that the cells were treated with 10.0 µM saclipin A. The vertical axis represents the cell viability when the cell viability of cells treated with 1% ethanol is taken as 100%.

[3] = system: neonatal human dermal fibroblasts (NHDF); test: MTT test on neonatal human dermal fibroblasts (biocompatibility test); type: cell-based; conditions: compared with 1% ethanol control; for appearance of cells (microphotographs): 10.0 µM; for cytotoxicity (cell viability, MTT): 0.1 to 10.0 µM
Method: as §1, §2
as §3, with “Fig. 12” for “Fig. 13”, “viability (%).” for “viability (cell viability, %).”, “to the” for “to each”

elastin = test: Elastin anti-glycation assay kit; type: biochemical; conditions: for IC50: sample dissolved in DMSO, read-out: IC50 value, inhibition effect on the glycation reaction of elastin
Method: (§4) To evaluate the anti-glycation activity of saclipin A and saclipin B, the effect on glycation of elastin and collagen was investigated.
(§5) The effect of saclipin on the glycation of elastin and collagen was evaluated using an elastin anti-glycation assay kit (product number: AAS-AGE-K05, Cosmo Bio Co., Ltd.) and a collagen anti-glycation assay kit (product number: AK71, Cosmo Bio Co., Ltd.), respectively. The assay was performed according to the manufacturer's protocol using saclipin A and saclipin B purified from Suizenji-nori. However, since saclipin was not dissolved in the attached aqueous buffer solution, it was dissolved in dimethyl sulfoxide (DMSO) and subjected to an experiment. The final reaction concentration of the sample was adjusted to 0 mM, 0.5 mM, 1.0 mM, 2.0 mM, and 4.0 mM.

[4] = Photoisomerization by light irradiation, HPLC analysis; type: physicochemical; conditions: for time for which the amount ratio of saclipin A and saclipin B did not change: dark treatment after light irradiation
Method: Saclipin A purified from dried Suizenji-nori was dissolved in methanol, ethanol or acetonitrile, and the solution was irradiated with light of 6000 lux under a white fluorescent lamp for 24 hours or longer. Thereafter, HPLC analysis was performed under the following measurement conditions to calculate the amounts of saclipin A and saclipin B, and the isomerization rate of saclipin A was calculated. The chromatogram of the saclipin A solution before light irradiation is shown on the left in Fig. 6, and the chromatogram of the saclipin A solution after light irradiation is shown on the right in Fig. 6.
• Detection wavelength: 320 nm • Column: Inerteil ODS-P 3 µm, 4.6×33 + 4.6×150 mm • Eluent: 50% Acetonitrile (isocratic)

collagen = test: Collagen anti-glycation assay kit; type: biochemical; conditions: sample dissolved in DMSO; read-out: IC50 value, inhibition effect on glycation of collagen
Method: as §4, §5

[5] = Absorption spectrum analysis (ultraviolet absorption); type: physicochemical; conditions: methanol solution; for Molar absorption coefficient: at the absorption maximum
Method: The obtained dried sample was dissolved in methanol, and subjected to absorption spectrum analysis, high-resolution mass spectrometry, and measurement of ^1H and ^13C-NMR spectra. In each graph of Fig. 3, the horizontal axis represents wavelength (nm), and the vertical axis represents relative absorbance.
The absorption spectra of "saclipin A (Sac A)", "saclipin B (Sac B)", "methyl-esterified saclipin A (Sac A_methyl ester)", and "methyl-esterified saclipin B (Sac B_methyl ester)" were acquired by the method described in "2. Structure determination of saclipin A and saclipin B" described above. In each graph of Fig. 11, the horizontal axis represents wavelength (nm), and the vertical axis represents relative absorbance. The maximum point of saclipin A was 317 nm. The maximum point of methyl-esterified saclipin A was 316 nm. The maximum point of saclipin B was 319 nm. The maximum point of methyl-esterified saclipin B was 319 nm.

[6] = reaction time 20 min, read-out: IC50 value (µM) 20 min
[7] = reaction time 40 min, read-out: IC50 value (µM) 40 min

| SMILES | IC50 [1, 6] | IC50 [1, 7] | β/α value [1] | temporal change of radical scavenging [2] | appearance of cells (microphotographs) (PSVK1 cells) | cytotoxicity (cell viability, MTT) (PSVK1 cells) | appearance of cells (microphotographs) [3] | cytotoxicity (cell viability, MTT) [3] | IC50 (elastin) | time for which the amount ratio of saclipin A and saclipin B did not change [4] | dissolved saclipin A converted to saclipin B ([4]; methanol, ethanol or acetonitrile, 6000 lux white fluorescent lamp, 24 hours or longer) | IC50 (collagen) | Molar absorption coefficient [5] | Absorption maximum [5] | Absorption maximum ([5]; listed as Saclipin A) | glycation reaction inhibited (elastin) (elastin; concentration of 4 mM) |
| --- | --- | --- | --- | --- | --- | --- | --- | --- | --- | --- | --- | --- | --- | --- | --- | --- |
| Cc1c(C)c2c(c(C)c1O)CCC(C)(C(=O)O)O2 (centres unmarked) [Trolox, 6-hydroxy-2,5,7,8-tetramethylchroman-2-carboxylic acid, reference compound] | 6.7 µM | 6.7 µM | 1.00 | hardly functioned after a radical scavenging reaction occurred immediately after addition | – | – | – | – | – | – | – | – | – | – | – | – |
| CCC(=O)/C=C/C=C/C=C/C(=O)CCCCCCCC(=O)O [saclipin A, (10E,12E,14E)-9,16-Dioxooctadeca-10,12,14-trienoic acid] | 974 µM | 717 µM | 0.78 | proceeded even after 2900 seconds | no abnormality was observed | not higher than that of 1% ethanol at any concentration | no abnormality was observed | not higher than that of 1% ethanol at any concentration | 2500 µM | at least 96 hours | About 90% | 1900 µM | 26,454 M^-1cm^-1 | 317 nm | 316 nm | – |
| CCC(=O)/C=C/C=C\C=C\C(=O)CCCCCCCC(=O)O [saclipin B, (10E,12Z,14E)-9,16-Dioxooctadeca-10,12,14-trienoic acid] | 182 µM | 142 µM | 0.74 | proceeded even after 2900 seconds | no abnormality was observed | not higher than that of 1% ethanol at any concentration | no abnormality was observed | not higher than that of 1% ethanol at any concentration | – | at least 96 hours | – | 900 µM | 30,555 M^-1cm^-1 | 319 nm | – | about 45% |
| N=C(N)NN [aminoguanidine, reference compound] | – | – | – | – | – | – | – | – | 1500 µM | – | – | 2400 µM | – | – | – | – |
| O=C1O[C@H]([C@@H](O)CO)C(O)=C1O [Ascorbic acid, reference compound] | 7.9 µM | 7.5 µM | 0.95 | hardly functioned after a radical scavenging reaction occurred immediately after addition | – | – | – | – | – | – | – | – | – | – | – | – |
